Test results: the NIST ThermoML archive (doi:10.1016/j.tca.2010.09.004)
Numbers after ± are expanded uncertainties.

Experiment: xn = mol fraction of the nth substance listed
Details: 101 kPa, Liquid; for speed of sound: Sing-around technique in a fixed-path interferometer; for mass density: Vibrating tube method

CCN(CC)CC [triethylamine] + CCC(C)=O
Details	mass density [kg/m3]	speed of sound [m/s]
293.15 K, x2 = 0.0684	730.666 ± 0.21	1134.5 ± 1
293.15 K, x2 = 0.1169	733.08 ± 0.21	1136 ± 1
293.15 K, x2 = 0.1627	735.417 ± 0.21	1138 ± 1
293.15 K, x2 = 0.2218	738.705 ± 0.21	1140.6 ± 1
293.15 K, x2 = 0.2686	741.43 ± 0.21	1143 ± 1
293.15 K, x2 = 0.3141	744.214 ± 0.21	1145.5 ± 1
293.15 K, x2 = 0.3549	746.818 ± 0.21	1147.9 ± 1
293.15 K, x2 = 0.4154	750.867 ± 0.21	1151.7 ± 1
293.15 K, x2 = 0.4636	754.264 ± 0.21	1155 ± 1
293.15 K, x2 = 0.5054	757.343 ± 0.21	1158.2 ± 1
293.15 K, x2 = 0.5572	761.332 ± 0.2	1162.3 ± 1
293.15 K, x2 = 0.61	765.576 ± 0.2	1166.7 ± 1
293.15 K, x2 = 0.6519	769.122 ± 0.2	1170.6 ± 1
293.15 K, x2 = 0.7051	773.808 ± 0.2	1175.7 ± 1
293.15 K, x2 = 0.7603	778.962 ± 0.2	1181.4 ± 1
293.15 K, x2 = 0.8057	783.447 ± 0.2	1186.5 ± 1
293.15 K, x2 = 0.8586	788.929 ± 0.19	1192.8 ± 1
293.15 K, x2 = 0.9019	793.679 ± 0.19	1198.3 ± 1
293.15 K, x2 = 0.9451	798.586 ± 0.19	1204.1 ± 1
298.15 K, x2 = 0.0709	725.999 ± 0.22	1112.7 ± 1
298.15 K, x2 = 0.1149	728.152 ± 0.21	1114.2 ± 1
298.15 K, x2 = 0.158	730.378 ± 0.21	1115.9 ± 1
298.15 K, x2 = 0.2181	733.668 ± 0.21	1118.5 ± 1
298.15 K, x2 = 0.261	736.151 ± 0.21	1120.7 ± 1
298.15 K, x2 = 0.3203	739.738 ± 0.21	1123.9 ± 1
298.15 K, x2 = 0.3605	742.292 ± 0.21	1126.3 ± 1
298.15 K, x2 = 0.4159	745.987 ± 0.21	1129.9 ± 1
298.15 K, x2 = 0.4607	749.113 ± 0.21	1133 ± 1
298.15 K, x2 = 0.5106	752.756 ± 0.21	1136.7 ± 1
298.15 K, x2 = 0.5701	757.323 ± 0.21	1141.5 ± 1
298.15 K, x2 = 0.6039	760.048 ± 0.2	1144.5 ± 1
298.15 K, x2 = 0.66	764.735 ± 0.2	1149.5 ± 1
298.15 K, x2 = 0.7122	769.362 ± 0.2	1154.6 ± 1
298.15 K, x2 = 0.7604	773.883 ± 0.2	1159.8 ± 1
298.15 K, x2 = 0.8023	777.983 ± 0.2	1164.4 ± 1
298.15 K, x2 = 0.8437	782.252 ± 0.2	1169.6 ± 1
298.15 K, x2 = 0.8921	787.444 ± 0.19	1175.7 ± 1
298.15 K, x2 = 0.9456	793.453 ± 0.19	1182.8 ± 1
303.15 K, x2 = 0.0686	721.221 ± 0.22	1092.2 ± 0.99
303.15 K, x2 = 0.1149	723.47 ± 0.22	1093.7 ± 0.99
303.15 K, x2 = 0.1643	726.011 ± 0.22	1095.6 ± 0.99
303.15 K, x2 = 0.2101	728.487 ± 0.21	1097.6 ± 0.99
303.15 K, x2 = 0.2639	731.565 ± 0.21	1100.3 ± 0.99
303.15 K, x2 = 0.3102	734.326 ± 0.21	1102.7 ± 0.99
303.15 K, x2 = 0.3502	736.816 ± 0.21	1105.1 ± 0.99
303.15 K, x2 = 0.3869	739.189 ± 0.21	1107.4 ± 0.99
303.15 K, x2 = 0.45	743.482 ± 0.21	1111.7 ± 0.99
303.15 K, x2 = 0.5081	747.667 ± 0.21	1116 ± 1
303.15 K, x2 = 0.5652	752.023 ± 0.21	1120.6 ± 1
303.15 K, x2 = 0.6051	755.192 ± 0.21	1124 ± 1
303.15 K, x2 = 0.6561	759.446 ± 0.2	1128.7 ± 1
303.15 K, x2 = 0.7087	764.061 ± 0.2	1134 ± 1
303.15 K, x2 = 0.763	769.188 ± 0.2	1140 ± 1
303.15 K, x2 = 0.7945	772.2 ± 0.2	1143.5 ± 1
303.15 K, x2 = 0.8542	778.238 ± 0.2	1150.5 ± 1
303.15 K, x2 = 0.8987	783.012 ± 0.19	1156.3 ± 1
303.15 K, x2 = 0.95	788.818 ± 0.19	1163.4 ± 1

CCCCNCCCC [dibutylamine] + CCC(C)=O
Details	mass density [kg/m3]	speed of sound [m/s]
293.15 K, x2 = 0.0568	760.739 ± 0.2	1258.2 ± 1.1
293.15 K, x2 = 0.1152	762.014 ± 0.2	1255 ± 1.1
293.15 K, x2 = 0.1488	762.814 ± 0.2	1252.9 ± 1.1
293.15 K, x2 = 0.1968	764.024 ± 0.2	1250.3 ± 1
293.15 K, x2 = 0.2539	765.57 ± 0.2	1247.2 ± 1
293.15 K, x2 = 0.3056	767.093 ± 0.2	1244.4 ± 1
293.15 K, x2 = 0.3564	768.675 ± 0.2	1241.6 ± 1
293.15 K, x2 = 0.4105	770.501 ± 0.2	1238.7 ± 1
293.15 K, x2 = 0.4545	772.103 ± 0.2	1236.4 ± 1
293.15 K, x2 = 0.5005	773.872 ± 0.2	1234 ± 1
293.15 K, x2 = 0.5553	776.145 ± 0.2	1231.1 ± 1
293.15 K, x2 = 0.6022	778.277 ± 0.2	1228.9 ± 1
293.15 K, x2 = 0.6554	780.87 ± 0.2	1225.8 ± 1
293.15 K, x2 = 0.7036	783.444 ± 0.19	1223.3 ± 1
293.15 K, x2 = 0.7554	786.435 ± 0.19	1220.8 ± 1
293.15 K, x2 = 0.8022	789.404 ± 0.19	1218.7 ± 1
293.15 K, x2 = 0.8598	793.411 ± 0.19	1216.3 ± 1
293.15 K, x2 = 0.9001	796.544 ± 0.19	1215 ± 1
293.15 K, x2 = 0.9513	800.881 ± 0.19	1213.5 ± 1
298.15 K, x2 = 0.0681	756.775 ± 0.2	1237.3 ± 1
298.15 K, x2 = 0.1038	757.539 ± 0.2	1235.3 ± 1
298.15 K, x2 = 0.1625	758.95 ± 0.2	1232 ± 1
298.15 K, x2 = 0.2034	759.972 ± 0.2	1229.9 ± 1
298.15 K, x2 = 0.2603	761.475 ± 0.2	1226.7 ± 1
298.15 K, x2 = 0.3112	762.929 ± 0.2	1223.8 ± 1
298.15 K, x2 = 0.3523	764.175 ± 0.2	1221.6 ± 1
298.15 K, x2 = 0.3937	765.506 ± 0.2	1219.4 ± 1
298.15 K, x2 = 0.442	767.105 ± 0.2	1216.6 ± 1
298.15 K, x2 = 0.5018	769.396 ± 0.2	1213.3 ± 1
298.15 K, x2 = 0.5455	771.147 ± 0.2	1211 ± 1
298.15 K, x2 = 0.6036	773.698 ± 0.2	1207.7 ± 1
298.15 K, x2 = 0.6514	775.963 ± 0.2	1205.2 ± 1
298.15 K, x2 = 0.7003	778.472 ± 0.2	1202.7 ± 1
298.15 K, x2 = 0.7473	781.05 ± 0.2	1200.3 ± 1
298.15 K, x2 = 0.7978	784.142 ± 0.19	1197.9 ± 1
298.15 K, x2 = 0.8456	787.356 ± 0.19	1195.9 ± 1
298.15 K, x2 = 0.9022	791.581 ± 0.19	1193.7 ± 1
298.15 K, x2 = 0.9482	795.385 ± 0.19	1192.3 ± 1
303.15 K, x2 = 0.0621	752.548 ± 0.2	1218.9 ± 1
303.15 K, x2 = 0.1098	753.539 ± 0.2	1216.1 ± 1
303.15 K, x2 = 0.1666	754.759 ± 0.2	1212.6 ± 1
303.15 K, x2 = 0.2074	755.736 ± 0.2	1210.3 ± 1
303.15 K, x2 = 0.2593	757.08 ± 0.2	1207.2 ± 1
303.15 K, x2 = 0.309	758.454 ± 0.2	1204.7 ± 1
303.15 K, x2 = 0.3551	759.79 ± 0.2	1202 ± 1
303.15 K, x2 = 0.4045	761.368 ± 0.2	1199.3 ± 1
303.15 K, x2 = 0.4566	763.133 ± 0.2	1196.4 ± 1
303.15 K, x2 = 0.4957	764.551 ± 0.2	1194.1 ± 1
303.15 K, x2 = 0.5402	766.282 ± 0.2	1191.6 ± 1
303.15 K, x2 = 0.6005	768.842 ± 0.2	1188.2 ± 1
303.15 K, x2 = 0.6493	771.091 ± 0.2	1185.6 ± 1
303.15 K, x2 = 0.7004	773.646 ± 0.2	1182.9 ± 1
303.15 K, x2 = 0.7486	776.288 ± 0.2	1180.5 ± 1
303.15 K, x2 = 0.8005	779.398 ± 0.2	1177.9 ± 1
303.15 K, x2 = 0.8456	782.362 ± 0.19	1175.9 ± 1
303.15 K, x2 = 0.899	786.254 ± 0.19	1173.7 ± 1
303.15 K, x2 = 0.953	790.578 ± 0.19	1172 ± 1
